# Results taken from patent publication US20070072874A1, “Aminoheteroaryl compounds as protein kinase inhibitors” (Sugen, Inc., priority 2003, published 2007).
# Target: T1, GST fusion protein containing the Met kinase domain (Homo sapiens, UniProt P08581)
# T1 construct: Purified GST fusion protein containing the Met kinase domain, SUGEN, Inc
# Assay: MET transphosphorylation assay (ELISA, poly(glu-tyr) substrate)
# Format: biochemical
# Description: MET Transphosphorylation Assay
# This assay is used to measure phosphotyrosine levels on a poly(glutamic acid:tyrosine, 4:1) substrate as a means for identifying agonists/antagonists of met transphosphorylation of the substrate.
# Purified GST fusion protein containing the Met kinase domain, SUGEN, Inc.
# 10% aqueous (MilliQue H2O) DMSO.
# 2× Kinase Dilution Buffer: for 100 mL, mix 10 mL 1M HEPES at pH 7.5 with 0.4 mL 5% BSA/PBS, 0.2 mL 0.1 M sodium orthovanadate and 1 mL 5M sodium chloride in 88.4 mL dH2O.
# 4× ATP Reaction Mixture: for 10 mL, mix 0.4 mL 1 M manganese chloride and 0.02 mL 0.1 M ATP in 9.56 mL dH2O.
# 4× Negative Controls Mixture: for 10 mL, mix 0.4 mL 1 M manganese chloride in 9.6 mL dH2O.
# Antibody Dilution Buffer: for 100 mL, mix 10 mL 5% BSA/PBS, 0.5 mL 5% Carnation® Instant Milk in PBS and 0.1 mL 0.1 M sodium orthovanadate in 88.4 mL TBST.
# Rabbit polyclonal antophosphotyrosine antibody, SUGEN, Inc.
# Goat anti-rabbit horseradish peroxidase conjugated antibody, Biosource, Inc.
# ABTS Solution: for 1 L, mix 19.21 g citric acid, 35.49 g Na2HPO4 and 500 mg ABTS with sufficient dH2O to make 1 L.
# ABTS/H2O2: mix 15 mL ABST solution with 2 μL H2O2 five minutes before use.
# Coat ELISA plates with 2 μg Poly(Glu-Tyr) in 100 μL PBS, hold-overnight at 4° C.
# Block plate with 150 μL of 5% BSA/PBS for 60 min.
# Wash plate twice with PBS then once with 50 mM Hepes buffer pH 7.4.
# Add 50 μl of the diluted kinase to all wells. (Purified kinase is diluted with Kinase Dilution Buffer. Final concentration should be 10 ng/well.)
# Add 25 μL of the test compound (in 4% DMSO) or DMSO alone (4% in dH2O) for controls to plate.
# Incubate the kinase/compound mixture for 15 minutes.
# Add 25 μL of 40 mM MnCl2 to the negative control wells.
# Add 25 μL ATP/MnCl2 mixture to the all other wells (except the negative controls). Incubate for 5 min.
# Add 25 μL 500 mM EDTA to stop reaction.
# Add 100 μL rabbit polyclonal anti-Ptyr diluted 1:10,000 in Antibody Dilution Buffer to each well. Incubate, with shaking, at room temperature for one hour.
# Add 100 μL per well and incubate at room temperature, with shaking, for one hour.
# Add 100 μl of ABTS/H2O2 solution to each well.
# If necessary, stop the development reaction with the addition of 100 μl of 0.2M HCl per well.
# T1 sequence (P08581 1078-1345 limits assumed): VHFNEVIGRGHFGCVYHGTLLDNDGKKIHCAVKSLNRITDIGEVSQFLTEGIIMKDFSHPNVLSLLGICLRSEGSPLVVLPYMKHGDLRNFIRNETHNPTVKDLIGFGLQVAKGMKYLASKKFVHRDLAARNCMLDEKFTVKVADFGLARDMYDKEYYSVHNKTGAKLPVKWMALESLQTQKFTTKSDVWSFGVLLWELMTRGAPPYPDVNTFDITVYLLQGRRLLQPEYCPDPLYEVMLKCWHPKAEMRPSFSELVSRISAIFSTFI
row,SMILES,IC50 [nM]
1,"CN(C)CCS(=O)(=O)Nc1cccc(-c2cnc(N)c(OCc3c(F)ccc(F)c3Cl)c2)c1 [Example I-259, 2-Dimethylamino-ethanesulfonic acid {3-[6-amino-5-(2-chloro-3,6-difluoro-benzyloxy)-pyridin-3-yl]-phenyl}-amide]",1500
2,"Nc1ncc(-c2ccc(NS(=O)(=O)CCNC3CC3)cc2)nc1OCc1c(F)ccc(F)c1Cl [II-20, 2-Cyclopropylamino-ethanesulfonic acid {4-[5-amino-6-(2-chloro-3,6-difluoro-benzyloxy)-pyrazin-2-yl]-phenyl}-amide]",1200
3,"CN(C)[C@H]1CCN(C(=O)c2cccc(-c3cnc(N)c(OCc4c(F)ccc(F)c4Cl)n3)c2)C1 [II-54, {3-[5-Amino-6-(2-chloro-3,6-difluoro-benzyloxy)-pyrazin-2-yl]-phenyl}-[(3S)-3-dimethylamino-pyrrolidin-1-yl]-methanone]",1450
4,CN(C)[C@H]1CCN(C(=O)c2ccc(-c3cnc(N)c(OCc4ccc(F)cc4Cl)c3)cc2)C1 [Example I-205],8100
5,"CC(Oc1cc(-c2ccc(OCCC3CCCN3C)cc2)cnc1N)c1c(Cl)ccc(F)c1Cl (stereo not drawn) [Example I-356, 3-[1-(2,6-Dichloro-3-fluoro-phenyl)-ethoxy]-5-{4-(2-[1-methyl-pyrrolidin-2-yl)-ethoxy]-phenyl)-pyridin-2-ylamine]",790
6,"Nc1ncc(-c2cccnc2)cc1OCc1ccccc1 [Example I-489, 5-Benzyloxy-[3,3′]bipyridinyl-6-ylamine]",> 20000

# Stronger by IC50, values ahead:
row,IC50 [nM],SMILES
1,18,"CC(Oc1cc(-c2ccc(C(=O)N3CCC(N)CC3)cc2)cnc1N)c1c(Cl)ccc(F)c1Cl (stereo not drawn) [Example I-305, (4-{6-Amino-5-[1-(2,6-dichloro-3-fluoro-phenyl)-ethoxy]-pyridin-3-yl}-phenyl)-(4-amino-pipendin-1-yl)-methanone]"
2,680,"CC(Oc1cc(-c2ccc(OCCN3CCCC3)cc2)cnc1N)c1c(Cl)ccc(F)c1Cl (stereo not drawn) [Example I-355, 3-[1-(2,6-Dichlaro-3-fluoro-phenyl)-ethoxy]-5-[4-(2-pyrrolidin-1-yl-ethoxy)-phenyl]-pyridin-2-ylamine]"
3,62,"CC(Oc1cc(-c2ccc(C(=O)N3CCC(N4CCCC4)CC3)cc2)cnc1N)c1c(F)ccc(F)c1Cl (stereo not drawn) [Example I-339, (4-{6-Amino-5-[1-(2-chloro-3,6-difluoro-phenyl)-ethoxy]-pyridin-3-yl}-phenyl)-(4-pyrrolidin-1-yl-piperidin-1-yl)-methanone]"
